Measured values published in patent US20050043412A1, “Remedies for glaucoma comprising bunazosin and prostaglandins” (SANTEN PHARMACEUTICAL CO LTD, priority 2002, published 2005).
Counter-ions that a name gives are not always drawn.

System: intraocular pressure of cynomolgus monkeys
Test: Effect on intraocular pressure in normal cynomolgus monkeys after topical instillation
Assay type: in vivo, cynomolgus monkeys (Macaca fascicularis)
Conditions: normal cynomolgus monkey, single eye, 20 μl instillation (Detantol 0.01% bunazosin hydrochloride; Xalatan 0.005% latanoprost; combination: Xalatan 5 minutes after Detantol); IOP measured 2, 4 and 6 hours after administration
Protocol: So as to study the utility of bunazosin in combination with prostaglandin, bunazosin and prostaglandin were administered in combination to cynomolgus monkeys (Macaca fascicularis), examining the effect on intraocular pressure. Latanoprost was used as prostaglandin.
For bunazosin administration, Detantol (trade mark) ophthalmic solution, which contains bunazosin hydrochloride at 0.01%, was used. For latanoprost administration, Xalatan (trade mark) ophthalmic solution, which contains latanoprost at 0.005%, was used.
Cynomolgus monkeys were divided into four groups, a group to be dosed with a vehicle (vehicle group), a group to be dosed with bunazosin (bunazosin group), a group to be dosed with latanoprost (latanoprost group) and a group to be dosed with bunazosin and latanoprost [(bunazosin+latanoprost) group].
• 1. For topical anesthesia, a drop of 0.4% oxybuprocain hydrochloride ophthalmic solution was instilled into a single eye of each normal cynomolgus monkey. Then, intraocular pressure was measured before drug administration. • 2. […] 2, 4 and 6 hours after the administration of these test compound solutions, one drop of 0.4% oxybuprocain hydrochloride eye drops was instilled for topical anesthesia, and the intraocular pressure was measured. The maximum reduction of intraocular pressure in each group was determined by the following formula. […]

SMILES	Maximum reduction of intraocular pressure [mmHg]
CCCC(=O)N1CCCN(c2nc(N)c3cc(OC)c(OC)cc3n2)CC1 [Bunazosin, Bunazosin hydrochloride]	1.9
CC(C)OC(=O)CCC/C=C\C[C@@H]1[C@@H](CC[C@@H](O)CCc2ccccc2)[C@H](O)C[C@@H]1O [Latanoprost]	2.6
